The target of one test is T1, hBAT5 (Homo sapiens, UniProt O95870).
T1 sequence (O95870 1-558): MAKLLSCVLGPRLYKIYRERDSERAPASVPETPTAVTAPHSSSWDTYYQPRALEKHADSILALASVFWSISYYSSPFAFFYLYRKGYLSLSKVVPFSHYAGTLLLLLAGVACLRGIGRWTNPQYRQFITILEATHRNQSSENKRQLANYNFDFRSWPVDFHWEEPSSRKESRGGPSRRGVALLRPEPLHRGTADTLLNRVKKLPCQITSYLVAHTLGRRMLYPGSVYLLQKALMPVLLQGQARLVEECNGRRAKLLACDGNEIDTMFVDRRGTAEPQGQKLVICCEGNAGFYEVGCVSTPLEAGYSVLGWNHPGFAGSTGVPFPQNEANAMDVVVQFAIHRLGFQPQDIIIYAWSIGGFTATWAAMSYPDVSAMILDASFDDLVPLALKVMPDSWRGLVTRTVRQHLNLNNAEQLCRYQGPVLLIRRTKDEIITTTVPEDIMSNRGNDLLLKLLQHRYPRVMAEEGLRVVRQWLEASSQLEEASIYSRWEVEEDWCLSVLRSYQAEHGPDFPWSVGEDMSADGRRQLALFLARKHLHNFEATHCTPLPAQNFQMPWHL
The test is described as follows: Inhibition of 1-LG hydrolysis in hBAT5-HEK293 lysates (fluorescent glycerol assay). In kind it is biochemical. The arrangement: host or cells: HEK293.

For another test, the target named is T2, hABHD6 (Homo sapiens, UniProt Q9BV23).
T2 construct: expressed in transfected cells; host or cells: HEK293
T2 sequence (Q9BV23 1-337): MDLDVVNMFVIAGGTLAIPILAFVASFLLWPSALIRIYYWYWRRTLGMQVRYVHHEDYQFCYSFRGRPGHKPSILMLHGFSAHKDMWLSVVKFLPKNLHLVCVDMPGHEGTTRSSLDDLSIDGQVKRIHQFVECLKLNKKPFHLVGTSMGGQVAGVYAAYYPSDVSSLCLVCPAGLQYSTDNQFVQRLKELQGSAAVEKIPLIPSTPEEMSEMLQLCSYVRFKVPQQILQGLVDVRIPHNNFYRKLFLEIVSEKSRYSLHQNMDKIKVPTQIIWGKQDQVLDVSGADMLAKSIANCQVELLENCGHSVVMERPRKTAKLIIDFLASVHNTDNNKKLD
The test is described as follows: Hydrolase activity assay, hABHD6-HEK lysates. In kind it is biochemical. The conditions noted are these: hABHD6-HEK lysates; read-out: IC50.

For a further test, the target named is T3, mBAT5 (Mus musculus, UniProt Q9Z1Q2).
T3 sequence (Q9Z1Q2 1-558): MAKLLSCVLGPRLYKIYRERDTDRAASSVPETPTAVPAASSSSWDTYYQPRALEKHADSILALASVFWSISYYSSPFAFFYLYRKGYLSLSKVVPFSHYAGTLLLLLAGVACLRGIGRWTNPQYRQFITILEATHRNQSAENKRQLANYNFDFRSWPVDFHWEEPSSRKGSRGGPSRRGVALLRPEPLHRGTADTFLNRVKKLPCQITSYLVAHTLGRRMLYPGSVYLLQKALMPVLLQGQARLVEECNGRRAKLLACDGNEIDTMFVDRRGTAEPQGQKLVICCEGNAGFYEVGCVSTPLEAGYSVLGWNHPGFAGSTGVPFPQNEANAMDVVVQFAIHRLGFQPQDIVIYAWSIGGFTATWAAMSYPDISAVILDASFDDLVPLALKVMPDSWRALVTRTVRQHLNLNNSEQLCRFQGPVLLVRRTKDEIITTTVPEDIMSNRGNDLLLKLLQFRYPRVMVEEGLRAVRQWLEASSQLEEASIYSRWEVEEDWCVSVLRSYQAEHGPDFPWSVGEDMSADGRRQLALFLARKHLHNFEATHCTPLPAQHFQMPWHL
The test is described as follows: Competitive ABPP (TAMRA-FP) with mBAT5-HEK293 lysates. The conditions noted are these: 1 h pretreatment.

The next test deals with T4, hMAGL (Homo sapiens, UniProt Q99685).
T4 construct: expressed in transfected cells; host or cells: HEK
T4 sequence (Q99685 1-303): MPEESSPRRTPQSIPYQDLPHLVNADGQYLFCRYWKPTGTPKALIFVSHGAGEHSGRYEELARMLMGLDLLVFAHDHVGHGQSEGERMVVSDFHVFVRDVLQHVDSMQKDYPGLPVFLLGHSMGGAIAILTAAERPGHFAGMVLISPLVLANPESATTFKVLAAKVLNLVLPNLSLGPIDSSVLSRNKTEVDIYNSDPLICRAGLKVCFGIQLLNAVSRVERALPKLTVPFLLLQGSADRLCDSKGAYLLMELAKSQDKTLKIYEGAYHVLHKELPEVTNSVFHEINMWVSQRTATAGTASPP
The experiment in a line: Hydrolase activity assay, hMAGL-HEK lysates. In kind it is biochemical.

The target in the next test is T5, hFAAH (Homo sapiens, UniProt O00519).
T5 construct: expressed in transfected cells; host or cells: COS-7
T5 sequence (O00519 1-579): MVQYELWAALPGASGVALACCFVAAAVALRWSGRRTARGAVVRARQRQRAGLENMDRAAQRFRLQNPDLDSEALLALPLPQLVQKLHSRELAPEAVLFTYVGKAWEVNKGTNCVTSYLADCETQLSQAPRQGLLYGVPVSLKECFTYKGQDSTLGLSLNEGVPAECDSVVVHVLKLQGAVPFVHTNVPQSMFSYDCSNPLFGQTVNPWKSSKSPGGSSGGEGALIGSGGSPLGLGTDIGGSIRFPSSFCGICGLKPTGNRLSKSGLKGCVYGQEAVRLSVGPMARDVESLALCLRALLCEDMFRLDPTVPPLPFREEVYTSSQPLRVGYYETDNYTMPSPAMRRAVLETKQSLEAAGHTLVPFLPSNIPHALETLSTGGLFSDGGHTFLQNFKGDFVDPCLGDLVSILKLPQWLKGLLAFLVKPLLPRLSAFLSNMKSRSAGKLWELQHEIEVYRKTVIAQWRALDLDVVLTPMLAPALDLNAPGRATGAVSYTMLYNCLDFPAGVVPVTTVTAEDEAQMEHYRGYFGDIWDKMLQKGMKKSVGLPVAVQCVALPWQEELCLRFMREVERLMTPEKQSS
The experiment in a line: FAAH activity assay, hFAAH-COS7 membranes (3H-anandamide). In kind it is biochemical.

Another test has as its target T6, hABHD12 (Homo sapiens, UniProt Q8N2K0).
T6 construct: expressed in transfected cells; host or cells: HEK293
T6 sequence (Q8N2K0 1-398): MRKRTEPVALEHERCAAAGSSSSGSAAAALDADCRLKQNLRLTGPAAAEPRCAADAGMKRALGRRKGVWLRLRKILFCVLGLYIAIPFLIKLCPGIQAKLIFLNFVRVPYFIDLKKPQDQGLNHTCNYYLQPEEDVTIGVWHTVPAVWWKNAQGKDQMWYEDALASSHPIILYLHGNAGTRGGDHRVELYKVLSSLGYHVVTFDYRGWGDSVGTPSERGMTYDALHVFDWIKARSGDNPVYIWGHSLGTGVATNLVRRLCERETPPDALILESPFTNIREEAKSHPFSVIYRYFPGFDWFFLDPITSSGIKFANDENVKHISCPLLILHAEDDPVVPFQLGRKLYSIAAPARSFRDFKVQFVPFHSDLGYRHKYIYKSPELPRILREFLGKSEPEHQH
The experiment in a line: Hydrolase activity assay, hABHD12-HEK lysates. In kind it is biochemical.

Where [1] appears, read: at 10^−5 M, read-out: Remaining activity.

“And” between values parts separate entries of the source, which are not always exact repeats. Equal entries are not always repeated.

Experimental findings from PMC4188605, “Biochemical and Pharmacological Characterization of the Human Lymphocyte Antigen B-Associated Transcript 5 (BAT5/ABHD16A)” (PLoS ONE, 2014) are described below.

Protocol for mBAT5: Inhibitor dose–response curves and IC50 values derived thereof were calculated from non-linear regressions using GraphPad Prism 5.0 for Windows. The logIC50 values are means ± SEM from three independent experiments. […] The data are derived from three separate ABPP experiments.

As to `CC(=C\C(=O)O)/C=C(\C)C[C@H](C)CCCC[C@H]1OC(=O)[C@@H]1CO` [Hymeglusin, hymeglusin], the “hBAT5 inhibitory activity (in words)” value on hBAT5 (1-LG hydrolysis) is “inactive”. Moreover, the remaining activity at 10 µM came out at 102.6 ± 1% on hBAT5 (at 10^-5 M, 1-LG 25 µM); 106% at hMAGL (setting [1]); 79.2% on hFAAH (setting [1]); 103% on hABHD12 (setting [1]). The IC50 at hABHD6 is ~3.2 µM and 3.2 µM. On mBAT5, the “inhibition of probe binding to mBAT5 (in words)” value is “inactive”. The “sensitivity of hMAGL (in words)” value on hMAGL is “resistant”. For the same compound, the “sensitivity of hFAAH (in words)” value at hFAAH was “resistant”. Besides, the “sensitivity of hABHD12 (in words)” value on hABHD12 was “resistant”.
